Data taken from patent publication US20240277658A1, “NLRP3 ACTIVATORS FOR USE IN THE TREATMENT OF INFECTIOUS DISEASES OR CANCER BY ACTIVATING NLRP3 INFLAMMASOME” (ALBERT-LUDWIGS-UNIVERSITÄT FREIBURG, priority 2020, published 2024).
Several values for one entry are separate records, joined by “and”; a condition that tells them apart may be missing. Equal values may be shown once.

Molecular target: T1, NLRP3 inflammasome (Mus musculus, UniProt Q8R4B8)
T1 construct: endogenous in cells; host or cells: primary mouse bone marrow-derived dendritic cells (BMDCs), LPS-primed
T1 sequence (Q8R4B8 whole entry): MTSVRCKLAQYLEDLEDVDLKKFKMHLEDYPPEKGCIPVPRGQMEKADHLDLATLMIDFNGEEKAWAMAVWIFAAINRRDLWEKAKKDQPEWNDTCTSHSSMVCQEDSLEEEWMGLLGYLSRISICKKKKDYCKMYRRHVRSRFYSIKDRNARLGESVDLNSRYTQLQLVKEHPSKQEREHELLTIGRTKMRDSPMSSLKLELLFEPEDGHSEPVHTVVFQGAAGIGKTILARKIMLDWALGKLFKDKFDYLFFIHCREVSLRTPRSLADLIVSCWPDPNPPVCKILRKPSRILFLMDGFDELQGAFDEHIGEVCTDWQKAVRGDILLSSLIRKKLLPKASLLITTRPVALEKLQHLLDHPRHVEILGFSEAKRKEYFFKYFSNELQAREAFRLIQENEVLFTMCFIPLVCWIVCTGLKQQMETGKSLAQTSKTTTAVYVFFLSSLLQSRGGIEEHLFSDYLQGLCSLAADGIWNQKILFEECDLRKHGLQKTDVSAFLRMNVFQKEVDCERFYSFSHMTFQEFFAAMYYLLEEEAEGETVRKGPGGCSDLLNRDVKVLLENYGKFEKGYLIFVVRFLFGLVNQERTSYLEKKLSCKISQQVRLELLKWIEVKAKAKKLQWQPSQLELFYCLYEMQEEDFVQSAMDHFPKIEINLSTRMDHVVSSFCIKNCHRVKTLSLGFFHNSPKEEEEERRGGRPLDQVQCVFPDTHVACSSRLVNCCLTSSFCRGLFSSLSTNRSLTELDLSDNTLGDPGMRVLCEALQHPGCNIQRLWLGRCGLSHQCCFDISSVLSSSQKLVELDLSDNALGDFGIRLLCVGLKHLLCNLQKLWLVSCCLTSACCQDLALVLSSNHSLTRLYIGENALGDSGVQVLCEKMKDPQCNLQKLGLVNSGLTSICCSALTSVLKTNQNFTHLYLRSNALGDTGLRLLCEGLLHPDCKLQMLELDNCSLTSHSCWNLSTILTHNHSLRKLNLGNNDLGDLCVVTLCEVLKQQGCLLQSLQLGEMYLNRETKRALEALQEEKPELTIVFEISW
Assay: IL-1β release from LPS-primed BMDCs (ELISA) as readout of NLRP3 inflammasome activation
Type: cell-based
Method in brief: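 NLRP3 inflammasome activation was read out as IL-1β released into the supernatant, measured by ELISA. Murine BMDCs were primed with LPS (50 ng ml^−1, 3 hours), then incubated with compounds for 3 hours, with each condition run in three technical replicates. Nigericin at 5 μM acted as the positive control activator, and IL-1β release was also expressed as a percentage of that control.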

Average IL-1β (10 μM): 10.000 ng/mL | IL-1β (10 μM, individual replicate values): 10.000 ng/mL | Average IL-1β (18.75 μM): 6.322 ng/mL | Average IL-1β (25 μM, EN11 series table): 1.474 ng/mL | time after which inflammasome activation is almost maximum (BMDCs from wild-type mice without inhibitor): 30 min | EC50 for induction of IL-1β, times lower than for imiquimod and CL097 (BMDCs, FIG. 4D): 10 times | Average (% positive control) (IL-1β release, compound 50 μM, positive control nigericin 5 μM): 128.957 % positive control | Average (% positive control) (IL-1β, 10 μM, positive control EN22 10 μM): 100.000 % positive control | Average (% positive control) (IL-1β, 18.75 μM, positive control EN22 18.75 μM): 100.000 % positive control | Average (% positive control) (IL-1β, 25 μM, positive control EN22 25 μM): 100.000 % positive control | Average (% positive control) (IL-1β, concentration not given, positive control EN22): 100.000 % positive control | Average IL-1β (compound 50 μM, LPS-primed BMDCs): 9.244 ng/mL | Average IL-1β (concentration not given, JB series table): 1.957 ng/mL | Average IL-1β (section 1.2, 25 μM): 5.026 ng/mL | Average (% positive control) (section 1.2, IL-1β release, 25 μM, positive control EN22 25 μM): 100.000 % positive control
Compound: O=C(Nc1ccccc1)Nc1ccc2ncccc2c1 [EN22, 1-phenyl-3-(quinolin-6-yl)urea]
IL-1β (18.75 μM, individual replicate values): 7.071 ng/mL and 5.864 ng/mL and 6.030 ng/mL | IL-1β (25 μM, individual replicate values, EN11 series table): 1.387 ng/mL and 1.391 ng/mL and 1.646 ng/mL | IL-1β (concentration not given, individual replicate values, JB series table): 1.632 ng/mL and 2.095 ng/mL and 2.146 ng/mL | IL-1β (section 1.2, single replicates, 25 μM): 4.821 ng/mL and 5.196 ng/mL and 5.062 ng/mL | IL-1β (single replicates, compound 50 μM, LPS-primed BMDCs): 8.679 ng/mL and 9.014 ng/mL and 9.589 ng/mL and 8.363 ng/mL and 10.000 ng/mL and 9.819 ng/mL
